Patent US7060733B2, “Methods for treating pancreatitis with curcumin compounds and inhibitors of reactive oxygen species” (The Regents of the University of California, priority 2002, dated 2006)

Experiments:
[1] = tested on: NF-κB; test: Curcumin and N-acetylcysteine alone and in combination, NF-κB activation in CCK-stimulated acinar cells; assay type: cell-based, rat; conditions: 0.1 μM CCK
Method: To measure the effects of curcumin compounds and ROS inhibitors, EMSAs and nuclear protein extractions were conducted as provided above. […] EMSAs for NF-κB activation were performed on nuclear proteins extracted from each sample.

[2] = tested on: NF-κB and AP-1; conditions: antioxidant; cited from earlier work

Row | Molecule | inhibition of NF-κB activation in CCK-stimulated acinar cells ([1]; N-acetylcysteine 10 μM alone) | NF-κB activation [2] | inhibition of NF-κB activation in CCK-stimulated acinar cells ([1]; curcumin 50 μM with N-acetylcysteine 10 μM)
1 | CC(=O)N[C@@H](CS)C(=O)O [N-acetylcysteine, reference compound] | very little inhibition | inhibit | –
2 | curcumin and N-acetylcysteine | – | – | synergistic effect
